For orientation: IC50 means the concentration needed to halve the response being measured. Higher therefore signals weaker potency in that assay. A word on the EC50: it is the concentration that produces a half-maximal response. A higher EC50 goes with lower potency in that assay.

Each structure is given as a SMILES string.

Data on 20 compounds can be found in patent US12312359B2 (Vitae Pharmaceuticals, LLC, priority 2016, dated 2025).

In test [1] the target is T1, biotinylated wild-type menin and MLL-AF9 fusion protein (menin/MLL binding) (Homo sapiens, UniProt O00255).
T1 construct: made in house; host or cells: menin: E. coli; MLL-AF9-FLAG: HEK293 cells, used as cleared lysate
T1 sequence (O00255 1-610): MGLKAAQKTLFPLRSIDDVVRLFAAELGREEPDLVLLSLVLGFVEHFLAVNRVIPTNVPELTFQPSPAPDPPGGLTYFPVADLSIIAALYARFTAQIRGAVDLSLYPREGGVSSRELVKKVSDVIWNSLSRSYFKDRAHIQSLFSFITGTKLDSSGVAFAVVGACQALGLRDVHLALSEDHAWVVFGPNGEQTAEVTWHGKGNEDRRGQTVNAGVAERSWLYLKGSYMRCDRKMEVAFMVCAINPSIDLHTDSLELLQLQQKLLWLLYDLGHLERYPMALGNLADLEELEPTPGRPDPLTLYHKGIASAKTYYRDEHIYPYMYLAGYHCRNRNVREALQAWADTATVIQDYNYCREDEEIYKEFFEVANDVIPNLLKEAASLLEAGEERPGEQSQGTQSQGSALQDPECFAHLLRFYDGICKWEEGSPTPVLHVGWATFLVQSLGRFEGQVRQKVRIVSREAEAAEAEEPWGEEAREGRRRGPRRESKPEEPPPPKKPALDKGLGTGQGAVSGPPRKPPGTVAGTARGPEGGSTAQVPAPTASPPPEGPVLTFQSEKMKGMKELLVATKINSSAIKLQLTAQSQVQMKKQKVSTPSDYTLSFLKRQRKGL
As to the kind of experiment: Assay 1: menin/MLL binding AlphaLISA assay, wild-type menin. The note with it: Table 30; column head does not say wild-type or mutated menin. The essentials: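 Compound was preincubated 30 min at room temperature with biotinylated menin (5 nM) and MLL-AF9-FLAG lysate from HEK293 cells, pH 7.4 buffer with 5% DMSO and DTT. Bead-based Alpha signal after 60 min with streptavidin donor and anti-FLAG acceptor beads; four-parameter logistic fit gave IC50.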
Background: Bead proximity is the source of the signal in Alpha formats.

The test system of test [2] is human acute monocytic leukemia cell line MV-4-11. As to the kind of experiment: Assay 2: cell proliferation assay (ATP quantitation, CellTiter-Glo), MV-4-11. The note with it: Homo sapiens, MV4-11, 72 h, MV-4-11 cells. It counts as cell-based. The method in brief:
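MV-4-11 cells, 1.67×10^4 per well in medium with 10% FBS, were exposed to compound for 72 h at 37° C., 5% CO2; HL-60 cells served as toxicity control. Proliferation read as ATP content by CellTiter-Glo luminescence.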
Background: In ATP-based viability assays light output follows the ATP content of the culture.

In turn, `CCN(C(=O)c1cc(F)ccc1Oc1cncnc1N1CCC2(CCN(Cc3ccc4c(c3)[nH]c(=O)n4C)C2)C1)C(C)C` (stereo not shown) [Example 107, N-ethyl-5-fluoro-N-isopropyl-2-((4-(7-((1-methyl-2-oxo-2,3-dihydro-1H-benzo[d]imidazol-5-yl)methyl)-2,7-diazaspiro[4.4]nonan-2-yl)pyrimidin-5-yl)oxy)benzamide] returned an IC50 in test [1] of less than 100 nM. Also, in test [2], the EC50 is less than 100 nM.
For `Fc1ccc(Oc2cncnc2N2CCC3(CCN(CC4CCOCC4)C3)C2)c(OC2CCCC2)c1` (stereo not shown) [Example 108, 2-(5-(2-(cyclopentyloxy)-4-fluorophenoxy)pyrimidin-4-yl)-7-((tetrahydro-2H-pyran-4-yl)methyl)-2,7-diazaspiro[4.4]nonane], in test [1], the 50% inhibitory concentration (IC50) is less than 100 nM. Further, in test [2], the concentration for a half-maximal effect (EC50) was no less than 1000 nM.
`CCN(C(=O)C(C)C)c1cc(F)ccc1Oc1cncnc1N1CC2(CCN(CC3CCOCC3)CC2)C1` [Example 110, N-ethyl-N-(5-fluoro-2-((4-(7-((tetrahydro-2H-pyran-4-yl)methyl)-2,7-diazaspiro[3.5]nonan-2-yl)pyrimidin-5-yl)oxy)phenyl)iso-butyramide] returned a half-inhibitory concentration (IC50) in test [1] of less than 100 nM. The same compound registered an EC50 in test [2] of 100 to 1000 nM.
For `CC(C)N(C(=O)c1cc(F)ccc1Oc1cncnc1N1CC2(CCN(CC3CCOCC3)C2)C1)C(C)C` [Example 111, 5-fluoro-N,N-diisopropyl-2-((4-(6-((tetrahydro-2H-pyran-4-yl)methyl)-2,6-diazaspiro[3.4]octan-2-yl)pyrimidin-5-yl)oxy)benzamide], in that order: less than 100 nM and less than 100 nM.
For `CC(C)N(C(=O)c1cc(F)ccc1Oc1cncnc1N1CC2(CN(CC3CCOCC3)C2)C1)C(C)C` [Example 112, 5-fluoro-N,N-diisopropyl-2-((4-(6-((tetrahydro-2H-pyran-4-yl)methyl)-2,6-diazaspiro[3.3]heptan-2-yl)pyrimidin-5-yl)oxy)benzamide], in that order: less than 100 nM and less than 100 nM.
As for `CC(C)N(C(=O)c1cc(F)ccc1Oc1cncnc1N1CC2(CCN(C(=O)Cc3ccc(C#N)cc3)C2)C1)C(C)C` [Example 113, 2-((4-(6-(2-(4-cyanophenyl)acetyl)-2,6-diazaspiro[3.4]octan-2-yl)pyrimidin-5-yl)oxy)-5-fluoro-N,N-diisopropylbenzamide], in test [1], the half-inhibitory concentration (IC50) was less than 100 nM. In test [2], this compound displayed an EC50 of less than 100 nM.
In turn, `CC(C)N(C(=O)c1cc(F)ccc1Oc1cncnc1N1CC2(CCN(C3CCc4cc(F)ccc4C3)C2)C1)C(C)C` (stereo not shown) [Example 114, 5-fluoro-2-((4-(6-(6-fluoro-1,2,3,4-tetrahydronaphthalen-2-yl)-2,6-diazaspiro[3.4]octan-2-yl)pyrimidin-5-yl)oxy)-N,N-diisopropylbenzamide] had a half-maximal inhibitory concentration (IC50) in test [1] of less than 100 nM. The compound also registered an EC50 in test [2] of 100 to 1000 nM.
As to `CC(C)N(C(=O)c1cc(F)ccc1Oc1cncnc1N1CC2(CN(CC[C@H]3CC[C@H](NC(=O)OC(C)(C)C)CC3)C2)C1)C(C)C` [Example 115, tert-butyl ((1r,4r)-4-(2-(6-(5-(2-(diisopropylcarbamoyl)-4-fluorophenoxy)pyrimidin-4-yl)-2,6-diazaspiro[3.3]heptan-2-yl)ethyl)cyclohexyl) carbamate], the IC50 in test [1] was less than 100 nM. The EC50 in test [2] is less than 100 nM.
In test [1], `CC(C)N(C(=O)c1cc(F)ccc1Oc1cncnc1N1CC2(CN(C(=O)Cc3ccc(C#N)cc3)C2)C1)C(C)C` [Example 116, 2-((4-(6-(2-(4-cyanophenyl)acetyl)-2,6-diazaspiro[3.3]heptan-2-yl)pyrimidin-5-yl)oxy)-5-fluoro-N,N-diisopropylbenzamide] gave an IC50 of less than 100 nM. In addition, the concentration giving a half-maximal response (EC50) in test [2] fell in the range of 100 to 1000 nM.
For `CCN(C(=O)C(C)C)c1cc(F)ccc1Oc1cncnc1N1CC2(CN(C(=O)C3Cc4ccc(S(C)(=O)=O)cc4C3)C2)C1` (stereo not shown) [Example 117, N-ethyl-N-(5-fluoro-2-((4-(6-(5-(methylsulfonyl)-2,3-dihydro-1H-indene-2-carbonyl)-2,6diazaspiro[3.3]heptan-2-yl)pyrimidin-5-yl)oxy)phenyl)iso-butyramide], in that order: less than 100 nM and 100 to 1000 nM.
In test [1], `CC(C)c1ncncc1-c1cc(F)ccc1Oc1cncnc1N1CC2(CC(NCC34CC(C#N)(C3)C4)C2)C1` [Example 118, 3-(((2-(5-(4-fluoro-2-(4-isopropylpyrimidin-5-yl)phenoxy)pyrimidin-4-yl)-2-azaspiro[3.3]heptan-6-yl)amino)methyl)bi-cyclo[1.1.1]pentane-1-carbonitrile] registered an IC50 of less than 100 nM. The same compound had an EC50 in test [2] of 100 to 1000 nM.
The like results for `CCN(C(=O)C(C)C)c1cc(F)ccc1Oc1cncnc1N1CC2(CN(C(=O)Cc3ccc(S(C)(=O)=O)cc3)C2)C1` [Example 119, N-ethyl-N-(5-fluoro-2-((4-(6-(2-(4-(methylsulfonyl)phenyl)acetyl)-2,6-diazaspiro[3.3]heptan-2-yl)pyrimidin-5-yl)oxy)phenyl)isobutyramide] were, in that order, less than 100 nM and 100 to 1000 nM.
`CCN(C(=O)C(C)C)c1cc(F)ccc1Oc1cncnc1N1CC2(CN(C(=O)C3Cc4ccc(Br)cc4C3)C2)C1` (stereo not shown) [Example 120, N-(2-((4-(6-(5-bromo-2,3-dihydro-1H-indene-2-carbonyl)-2,6-diazaspiro [3.3]heptan-2-yl)pyrimidin-5-yl)oxy)-5-fluorophenyl)-N-ethylisobutyramide] came in with a half-maximal inhibitory concentration (IC50) in test [1] of less than 100 nM. This compound also had a concentration for a half-maximal effect (EC50) in test [2] of less than 100 nM.
`CCN(C(=O)C(C)C)c1cc(F)ccc1Oc1cncnc1N1CC2(CN(CC3CCOCC3)C2)C1` [Example 121, N-ethyl-N-(5-fluoro-2-((4-(6-((tetrahydro-2H-pyran-4-yl)methyl)-2,6-diazaspiro[3.3]heptan-2-yl)pyrimidin-5-yl)oxy)phenyl)isobutyramide]: in test [1], the IC50 was less than 100 nM. This compound came in with an EC50 in test [2] of 100 to 1000 nM.
For `CC(C)N(C(=O)c1cc(F)ccc1Oc1cncnc1N1CCC2(CCN(Cc3ccc4[nH]c(=O)[nH]c4c3)C2)C1)C1CC1` (stereo not shown) [Example 122, N-cyclopropyl-5-fluoro-N-isopropyl-2-((4-(7-((2-oxo-2,3-dihydro-1H-benzo[d]imidazol-5-yl)methyl)-2,7-diazaspiro[4.4]nonan-2-yl)pyrimidin-5-yl)oxy)benzamide], in that order: less than 100 nM and less than 100 nM.
On to `CC(=O)NCCn1c(=O)[nH]c2cc(CN3CCC4(CCN(c5ncncc5Oc5ccc(F)cc5C(=O)N(C)C(C)C)C4)C3)ccc21` (stereo not shown) [Example 123, 2-((4-(7-((1-(2-acetamidoethyl)-2-oxo-2,3-dihydro-1H-benzo[d]imidazol-5-yl)methyl)-2,7-diazaspiro[4.4]nonan-2-yl)pyrimidin-5-yl)oxy)-5-fluoro-N-isopropyl-N-methylbenzamide], for which, in test [1], the IC50 was less than 100 nM. This compound also gave an EC50 in test [2] of no less than 1000 nM.
Take `CC(C)N(C)C(=O)c1cc(F)ccc1Oc1cncnc1N1CCC2(CCN(Cc3ccc4c(c3)[nH]c(=O)n4CCN(C)C)C2)C1` (stereo not shown) [Example 124, 2-((4-(7-((1-(2-(dimethylamino)ethyl)-2-oxo-2,3-dihydro-1H-benzo[d]imidazol-5-yl)methyl)-2,7-diazaspiro[4.4]nonan-2-yl)pyrimidin-5-yl)oxy)-5-fluoro-N-isopropyl-N-methylbenzamide]: in test [1], the IC50 was less than 100 nM. In test [2], this compound had an EC50 of 100 to 1000 nM.
Consider `CC(C)N(C)C(=O)c1cc(F)ccc1Oc1cncnc1N1CCC2(CCN(Cc3ccc4c(c3)NC(=O)C4(C)C#N)C2)C1` (stereo not shown) [Example 125, 2-((4-(7-((3-cyano-3-methyl-2-oxoindolin-6-yl)methyl)-2,7-diazaspiro [4.4]nonan-2-yl)pyrimidin-5-yl)oxy)-5-fluoro-N-isopropyl-N-methylbenzamide], for which the IC50 in test [1] was less than 100 nM. Besides, the 50% effective concentration (EC50) in test [2] is less than 100 nM.
As to `Cc1ncc(Oc2ccc(F)cc2-c2ccnn2C(C)C)c(N2CCC3(CCN(Cc4ccc5[nH]c(=O)[nH]c5c4)C3)C2)n1` (stereo not shown) [Example 126, 5-((7-(5-(4-fluoro-2-(1-isopropyl-1H-pyrazol-5-yl)phenoxy)-2-methylpyrimidin-4-yl)-2,7-diazaspiro[4.4]nonan-2-yl)methyl)-1,3-dihydro-2H-benzo[d]imidazol-2-one], the IC50 in test [1] was less than 100 nM. The same compound had a concentration for a half-maximal effect (EC50) in test [2] of 100 to 1000 nM.
For `CC(C)N(C)C(=O)c1cc(F)ccc1Oc1cncnc1N1CCC2(CN(C(=O)Cc3ccc(C#N)cc3)C2)C1` [Example 127, 2-((4-(2-(2-(4-cyanophenyl)acetyl)-2,6-diazaspiro[3.4]octan-6-yl)pyrimidin-5-yl)oxy)-5-fluoro-N-isopropyl-N-methylbenzamide], in that order: less than 100 nM and 100 to 1000 nM.
